# Source: patent US20030095958A1, “Inhibitors of bace” (priority 2001, published 2003)
# Biological target: BACE (Homo sapiens, UniProt P56817)
# Test: Ki Determination for the Inhibition of BACE (FS-1 peptide fluorescence cleavage assay)
# Format: biochemical
# Details: apparent Ki; 50 nM BACE, 10 μM FS-1 substrate, 0.1M sodium acetate pH 4.5
# Procedure, shortened: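 Human BACE (50 nM) was preincubated 15 min at room temperature with compound (2% DMSO) in 0.1 M sodium acetate pH 4.5, then 10 μM FS-1 peptide was added. Cleavage was followed by fluorescence (ex 355/em 495 nm), and apparent Ki came from fitting to the integrated competitive tight-binding inhibition equation.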
# Sequence of BACE (P56817 46-501): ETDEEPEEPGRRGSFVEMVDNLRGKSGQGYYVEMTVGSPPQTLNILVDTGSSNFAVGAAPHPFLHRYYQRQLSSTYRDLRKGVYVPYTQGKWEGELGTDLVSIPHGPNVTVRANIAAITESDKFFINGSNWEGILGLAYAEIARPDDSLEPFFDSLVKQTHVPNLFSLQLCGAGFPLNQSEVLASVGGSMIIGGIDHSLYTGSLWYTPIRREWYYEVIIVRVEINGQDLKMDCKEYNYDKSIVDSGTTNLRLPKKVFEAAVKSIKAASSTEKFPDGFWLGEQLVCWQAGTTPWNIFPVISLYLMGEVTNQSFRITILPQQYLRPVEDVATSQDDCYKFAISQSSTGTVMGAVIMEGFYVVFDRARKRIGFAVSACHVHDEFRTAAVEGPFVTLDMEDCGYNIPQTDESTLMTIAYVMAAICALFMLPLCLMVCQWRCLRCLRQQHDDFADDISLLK
row,Structure (SMILES),Ki [µM]
1,"Cc1cc(N2CCNCC2)c(NC(=O)c2cccc3ccccc23)cc1-c1ccoc1 [Compound 154, Naphthalene-1-carboxylic acid (5-furan-3-yl-4-methyl-2-piperazin-1-yl-phenyl)-amide]",> 30
2,"CCOC(=O)c1cc(Br)cc(NCc2ccc3ccccc3n2)c1N1CCNCC1 [Compound 188, 5-Bromo-2-piperazin-1-yl-3-[(quinolin-2-ylmethyl)-amino]-benzoic acid ethyl ester]",3 to 30
3,"Cc1ccccc1Oc1ccc(N2CCNCC2)c(NC(=O)c2cccc3ccccc23)c1 [Compound 140, Naphthalene-1-carboxylic acid (2-piperazin-1-yl-5-o-tolyloxy-phenyl)-amide]",3 to 30
4,"O=C(Nc1cc(-c2ccsc2)ccc1N1CCNCC1)c1cccc2ccccc12 [Compound 153, Naphthalene-1-carboxylic acid (2-piperazin-1-yl-5-thiophen-3-yl-phenyl)-amide]",3 to 30
5,"FC(F)(F)c1ccc(N2CCNCC2)c(NCc2ccc3ccccc3c2)c1 [Compound 100, Naphthalen-2-ylmethyl-(2-piperazin-1-yl-5-trifluoromethyl-phenyl)-amine]",3 to 30
6,"O=C(Nc1cc(C(F)(F)F)ccc1N1CCNCC1)c1nccc2ccccc12 [Compound 102, Isoquinoline-1-carboxylic acid (2-piperazin-1-yl-5-trifluoromethyl-phenyl)-amide]",3 to 30
7,"O=C(Nc1cc(C(F)(F)F)ccc1N1CCNCC1)c1ccc(F)c2ccccc12 [Compound 101, 4-Fluoro-naphthalene-1-carboxylic acid (2-piperazin-1-yl-5-trifluoromethyl-phenyl)-amide]",> 30
8,"O=C(NCC1CNCCC1c1ccc(COc2ccccc2C(F)(F)F)cc1)Oc1cccc2ccccc12 (stereo not drawn) [Compound 229, {4-[4-(2-Trifluoromethyl-phenoxymethyl)-phenyl]-piperidin-3-ylmethyl}-carbamic acid naphthalen-1-yl ester]",< 3
9,"CC(C)NS(=O)(=O)c1ccc(-c2ccc(N3CCNCC3)c(NC(=O)c3cccc4ccccc34)c2)cc1 [Compound 144, Naphthalene-1-carboxylic acid (4′-isopropylsulfamoyl-4-piperazin-1-yl-biphenyl-3-yl)-amide]",3 to 30
10,"C1=C(c2ccc(-c3ccccc3)cc2)C(COc2ccc3ccccc3c2)CNC1 (stereo not drawn) [Compound 302, 4-Biphenyl-4-yl-3-(naphthalen-2-yloxymethyl)-1,2,3,6-tetrahydro-pyridine]",< 3
11,O=C(Nc1ccc2ccccc2c1)C1CNCCC1c1ccc(-c2ccccc2)cc1 (stereo not drawn) [Compound 402],< 3
12,"O=C(Nc1cc(-c2ccc(Cl)cc2)ccc1N1CCNCC1)c1cccc2ccccc12 [Compound 121, Naphthalene-1-carboxylic acid (4′-chloro-4-piperazin-1-yl-biphenyl-3-yl)-amide]",3 to 30

# More lines, now with the values ahead:
row,Ki [µM],Structure (SMILES)
1,< 3,"FC(F)(F)c1ccccc1OCc1cc(-c2cccnc2)c(COc2ccccc2C(F)(F)F)cc1C1=CCNCC1 [Compound 340, 3-[4-(1,2,3,6-Tetrahydro-pyridin-4-yl)-2,5-bis-(2-trifluoromethyl-phenoxymethyl)-phenyl]-pyridine]"
2,< 3,"FC(F)(F)c1ccccc1OCc1cc(-c2ccccc2Cl)c(COc2ccccc2C(F)(F)F)cc1C1=CCNCC1 [Compound 348, 4-[2′-Chloro-2,5-bis-(2-trifluoromethyl-phenoxymethyl)-biphenyl-4-yl]-1,2,3,6-tetrahydro-pyridine]"
3,3 to 30,"FC(F)(F)c1ccccc1OCc1cc(-c2ccoc2)ccc1C1=CCNCC1 [Compound 363, 4-[4-Furan-3-yl-2-(2-trifluoromethyl-phenoxymethyl)-phenyl]-1,2,3,6-tetrahydro-pyridine]"
4,3 to 30,"O=C(Nc1ccc2ccccc2c1)c1ccc(COc2ccccc2C(F)(F)F)cc1C1=CCNCC1 [Compound 308, N-Naphthalen-2-yl-2-{1,2,3,6-tetrahydro-pyridin-4-yl)-4-(2-trifluoromethyl-phenoxymethyl)-benzamide]"
5,3 to 30,"COC(=O)c1ccc(C(=O)OCc2ccc(COc3ccccc3C(F)(F)F)cc2C2=CCNCC2)cc1 [Compound 317, Terephthalic acid 1-methyl ester 4-[2-(1,2,3,6-tetrahydro-pyridin-4-yl)-4-(2-trifluoromethyl-phenoxymethyl)-benzyl] ester]"
6,3 to 30,"O=C(Nc1cc(-c2ccc(C(F)(F)F)cc2)c(COc2ccccc2C(F)(F)F)cc1N1CCNCC1)c1nccc2ccccc12 [Compound 185, Isoquinoline-1-carboxylic acid [4-piperazin-1-yl-4′-trifluoromethyl-6-(2-trifluoromethyl-phenoxymethyl)-biphenyl-3-yl]-amide]"
7,< 3,"FC(F)(F)c1ccccc1OCc1ccc(COc2ccccc2C(F)(F)F)c(C2=CCNCC2)c1 [Compound 303, 4-[2,5-Bis-(2-trifluoromethyl-phenoxymethyl)-phenyl]-1,2,3,6-tetrahydro-pyridine]"
8,< 3,"O=C(c1cccc2ccccc12)n1c2c(c3cc(OCc4cc(C(F)(F)F)ccc4Cl)ccc31)CCNC2 [Compound 510, [6-(2-Chloro-5-trifluoromethyl-benzyloxy)-1,2,3,4-tetrahydro-b-carbolin-9-yl]-naphthalen-1-yl-methanone]"
9,< 3,"FC(F)Oc1ccc(COc2ccc3c(c2)c2c(n3Cc3cccc4ccccc34)CNCC2)cc1 [Compound 512, 6-(4-Difluoromethoxy-benzyloxy)-9-naphthalen-1-ylmethyl-2,3,4,9-tetrahydro-1H-b-carboline]"
10,< 3,"O=S(=O)(Nc1cc(C(F)(F)F)ccc1N1CCNCC1)c1ccc(-c2ccccc2C(F)(F)F)cc1 [Compound 172, 2′-Trifluoromethyl-biphenyl-4-sulfonic acid (2-piperazin-1-yl-5-trifluoromethyl-phenyl)-amide]"
11,< 3,"FC(F)(F)c1ccccc1OCc1cc(-c2cccc3ccccc23)c(COc2ccccc2C(F)(F)F)cc1C1=CCNCC1 [Compound 301, 4-[4-Naphthalen-1-yl-2,5-bis-(2-trifluoromethyl-phenoxymethyl)-phenyl]-1,2,3,6-tetrahydro-pyridine]"
12,< 3,"FC(F)(F)c1ccccc1OCc1cc(-c2ccccc2)c(COc2ccccc2C(F)(F)F)cc1C1=CCNCC1 [Compound 306, 4-[2,5-Bis-(2-trifluoromethyl-phenoxymethyl)-biphenyl-4-yl]-1,2,3,6-tetrahydro-pyridine]"
13,< 3,"O=C(Nc1cc(C(F)(F)F)c(-c2ccc(C(F)(F)F)cc2)cc1N1CCNCC1)c1cccc2ccccc12 [Compound 170, Naphthalene-1-carboxylic acid (5-piperazin-1-yl-2,4′-bis-trifluoromethyl-biphenyl-4-yl)-amide]"
14,3 to 30,"COC(=O)c1ccc(OCc2ccc(COc3ccccc3C(F)(F)F)cc2C2=CCNCC2)cc1 [Compound 329, 4-[2-(1,2,3,6-Tetrahydro-pyridin-4-yl)-4-(2-trifluoromethyl-phenoxymethyl)-benzyloxy]-benzoic acid methyl ester]"
15,< 3,"C1=C(c2cc(COc3ccc4ccccc4c3)c(-c3ccccc3)cc2COc2ccc3ccccc3c2)CCNC1 [Compound 307, 4-[2,5-Bis-(naphthalen-2-yloxymethyl)-biphenyl-4-yl]-1,2,3,6-tetrahydro-pyridine]"
